Structures are written as SMILES.

This test has as its system Jellyfish swimming muscle. In words: Excitation-contraction uncoupling of jellyfish swimming muscle during optical mapping. The test is classed as in vivo, Aurelia aurita. Particulars: juvenile jellyfish, artificial seawater at room temperature. The procedure: PMDS-coated glass cover slips with cardiomyocyte monolayers of medusoid muscle architecture were assayed in a custom-made optical mapping system (FIGS. 7i-o) by adapting previously described protocols. Briefly, the cultures were incubated for 5 minutes in 8 μM RH-237 voltage-sensitive dye (Iex/Iem in DMSO=˜550/˜800 nm; Molecular Probes) in Tyrode's solution, then washed with Tyrode's solution. During recording, the tissue was placed in Tyrode's solution containing 10 μM excitation-contraction uncoupler blebbistatin, thereby minimizing motion artifacts. All solutions were maintained at 35-37° C. A platinum point electrode connected to a Grass S48 stimulator (Grass technologies, West Warwick, R.I. 02893, USA) was placed ˜1 mm above the culture surface (FIG. 7i) and used to apply point stimuli (2 Hz, 5-8 V, 10-ms duration). Imaging was performed using an inverted microscope (Zeiss Axiovert 200; Carl Zeiss MicroImaging, LLC Thornwood, N.Y. 10594, USA) equipped with a 40× Plan-Neofluar (1.3 NA) oil-immersion objective, a fluorescence light source (Hamamatsu L2422 100 Watt Mercury-Xenon lamp) and a filter cube appropriate for RH237 imaging (Zeiss EX BP530-585, DC FT600, EM LP615). Fluorescence shutter opening and closing was synchronized with the pacing stimulus. Membrane voltage signals were optically recorded at 5 Hz using a honeycomb of 124 independent optical fibers, each monitoring an approximately circular field of view of 25 μm in diameter (FIGS. 6j and 6k) and each connected to a discrete photodiode transimpedance amplifier. The outputs of the photodiode amplifiers were digitized by a bank of differential amplifiers and DAQ cards (National Instruments Corporation, Austin, Tex. 78759, USA). Digitized signals were processed using custom-made software implemented in MATLAB (MathWorks, Natick, Mass. 01760, USA) (FIG. 7l). Activation times, defined as the time point of maximum positive slope of the action potential, served to calculate isochronal maps of activation and velocity vector fields across the field of view monitored by the LED array (FIGS. 7m and 7o).
Optical mapping in jellyfish (FIG. 7a-7h) was performed as in medusoid coverslips except for the following differences. All procedures were carried out in artificial seawater at room temperature (KENT Marine Sea Salt, KENT Marine Sea, 5401 West Oakwood Park Drive, Franklin, Wis. 53132). […] Thus, to constrain movement, an additional cover slip was placed on top of the jellyfish using vacuum grease as a spacer. […] Subsequently, activation times, isochronal maps and velocity vector fields were calculated as above (FIGS. 7e-7h).
With `CC(=O)C(C)=NO` [2,3-butanedione monoxime (BDM), 2,3-butanedione monoxime], the “sensitivity of jellyfish swimming muscle to excitation-contraction uncoupling agents” value (shortened to “sensitivity of jellyfish swimming muscle”) was “insensitive”.

With `Cc1ccc2c(c1)C(=O)C1(O)CCN(c3ccccc3)C1=N2` (stereo not shown) [blebbistatin], the “sensitivity of jellyfish swimming muscle” value is reported as “insensitive”.

As for `C=C1[C@@H](C)[C@H]2[C@H](Cc3ccccc3)NC(=O)[C@]23[C@H](OC(C)=O)/C=C/[C@@](C)(O)C(=O)[C@@H](C)C/C=C/[C@H]3[C@@H]1O` [cytochalasin D], the “sensitivity of jellyfish swimming muscle” value is “insensitive”.

As to `O=C1CN(/N=C/c2ccc(-c3ccc([N+](=O)[O-])cc3)o2)C(O)=N1` [dantrolene sodium], the “sensitivity of jellyfish swimming muscle” value is reported as “insensitive”.
